Patent US11191811B2, “Osteocalcin as a treatment for frailty associated with aging” (THE TRUSTEES OF COLUMBIA UNIVERSITY IN THE CITY OF NEW YORK, priority 2014, dated 2021)

Tests used:
Osteocalcin−/− mice = test: Behavioral tests of adult Osteocalcin−/− offspring of osteocalcin-injected pregnant Osteocalcin−/− mothers; type: in vivo, mouse; conditions: 240 ng/day once a day to pregnant mothers, E0.5 to E18.5
Method: FIG. 13. Maternal osteocalcin determines spatial learning and memory in adult offspring. (A-F) DLT (A), EPMT (B), OFT (C), FST (D), TST (E), and MWMT (F) performed in 3-month-old Osteocalcin^−/− mice born from Osteocalcin^−/− mothers injected once a day with vehicle or recombinant uncarboxylated osteocalcin (240 ng/day) during pregnancy compared to WT mice. (G) Surface of the lateral ventricle over brain area (%) of E18.5 hippocampi coronal sections of WT embryos originating from WT mothers and Osteocalcin^−/− embryos originating from osteocalcin-injected Osteocalcin^−/− mothers. (H) Number of apoptotic cells (stained by TUNEL assay) of E18.5 hippocampi coronal sections of WT embryos originating from WT mothers and Osteocalcin^−/− embryos originating from Osteocalcin^−/− mothers injected with osteocalcin (240 ng/day). […]
For osteocalcin delivery to pregnant mice, IP injections (240 ng/day) were performed as soon as a plug was present daily until delivery (E0.5-E18.5). […] Leptin and osteocalcin content in sera and tissues were determined by ELISA.
Spatial memory was assessed with Morris water maze (MWM) setup (Morris, 1981, Nature 297:681-683) using a training protocol adapted for mice (D'Hooge et al., 2005, J. Soc. Neurosci. 25:6539-6549). […] Spatial learning is assessed across repeated trials (4 trials/day for 10 days). […]

wild type mice = test: Body weight and gonadal fat pad mass during subcutaneous infusion; type: in vivo, mouse
Method: FIG. 4. Osteocalcin subcutaneous infusion decreases fat mass in wild-type mice. (A) Indicated doses of recombinant osteocalcin or PBS were infused subcutaneously for 28 days in wild-type mice. Body weight was recorded at indicated days. (B) Gonadal fat pad mass was measured after 28 days.
In another in vivo experiment, the effect of uncarboxylated osteocalcin on body weight and fat pad mass was monitored (FIG. 4). Wild type mice were infused subcutaneously for 28 days with PBS or uncarboxylated osteocalcin at 0.3, 1 or 3 ng/hour. […] Gonadal fat pad mass, measured after 28 days, decreased by about %18 with 3 ng/hour uncarboxylated osteocalcin treatment.

[1] = Osteocalcin in blood of ICV-infused Osteocalcin−/− mice; type: in vivo, mouse; conditions: ICV infusion 10 ng/hour
Method: For osteocalcin delivery to pregnant mice, IP injections (240 ng/day) were performed as soon as a plug was present daily until delivery (E0.5-E18.5). For osteocalcin or leptin infusion in adult Osteocalcin^−/− or ob/ob mice, pumps (Alzet micro-osmotic pump, Model 1002) delivering osteocalcin (300 ng/hr), leptin (50 ng/hr), or vehicle were surgically installed subcutaneously in the backs of 3-month old mice. For the postnatal rescue of cognitive functions in Osteocalcin^−/− mice, osteocalcin (10 ng/hour) or vehicle were delivered intrasubventricularly (icv) as previously described (Ducy et al., 2000, Cell 100:197-207). Leptin and osteocalcin content in sera and tissues were determined by ELISA.
The pharmacological relevance of this ability of osteocalcin to signal in neurons was established by delivering uncarboxylated osteocalcin through intracerebro-ventricular (ICV) infusions (10 ng/hour) in WT and Osteocalcin^−/− mice. The localization of the cannula was verified by administering methylene blue through these pumps. […] This week-long treatment with uncarboxylated osteocalcin corrected the anxiety and depression features noted in Osteocalcin^−/− mice (FIG. 12A-E). Collectively, the results described herein indicate that osteocalcin alleviates anxiety and depression in the mouse by acting directly in the brain.

Gprc6a−/− myotubes = test: 14C-oleate (fatty acid) oxidation in myotubes; type: cell-based, mouse
Method: (§1) Glucose and insulin tolerance tests were performed as previously described (Lee et al., 2007, Cell 130:456-469). For in vivo glucose uptake, a bolus of 2-deoxy-d-[^3H]glucose (^3H-2-DG, Perkin Elmer) (10 μCi) was administered before an endurance run. ^3H-2-DG and ^3H-2-DG-6-P content in muscle was determined by liquid scintillation counter and normalized to muscle weight. Glucose uptake and fatty acid oxidation assays in myotubes were performed as previously described (Sebastian et al., 2007, Am. J. Physiol. Endocrinol. Metab. 292:E667-686). GLUT4 translocation was determined by flow cytometry using an antibody against the extracellular domain of the GLUT4 protein (Santa Cruz, Sc-1606). Measurements of oxygen consumption rates (OCR) in isolated myofibers were performed using a XF24 Seahorse Analyzer® (Seahorse Biosciences). To analyze mitochondrial function, myofibers were treated with three compounds in succession (oligomycin 10 μg/ml, FCCP 200 μM, rotenone 0.2 μM) and OCR was recorded following administration of each of them.
(§2) Culture of skeletal muscle myoblasts from 7 day-old mice was performed as described (Gharaibeh et al., 2008, Nature Protocols 3:1501-1509). Myoblasts were differentiated into myotubes for 3-4 days in a medium containing 5% horse serum. Muscle fibers were isolated from flexor digitorum brevis muscle. Muscles were dissected with DMEM 2% collagenase for 2 hours at 37° C., in a 5% CO2 incubator. Muscle fibers were disaggregated from the tissue using a wide bore pipet and plated in matrigel-coated plates at approximately 50% confluence. After overnight incubation, isolated myofibers were used.

WT myotubes = test: 14C-oleate (fatty acid) oxidation in myotubes; type: cell-based, mouse
Method: as §1, §2

mice = test: Mouse asthma model (albumin sensitisation, nebulized albumin); type: in vivo; conditions: osteocalcin given by nebulization together with the nebulized albumin
Excerpt: In a mouse asthma model that involves intraperitoneal injection of albumin (to sensitize the mice) followed a week later by nebulized administration of albumin to the lungs of the mice, osteocalcin given by nebulization together with the nebulized albumin prevented the bronchoconstriction that would have otherwise been observed.

For “uncarboxylated osteocalcin: Recombinant uncarboxylated mouse osteocalcin, bacterially produced, purified on glutathione beads and cleaved from the GST subunit by thrombin (YLGASVPSPDPLEPTREQCELNPACDELSDQYGLKTAYKRIYGITI)”, the “anxiety or depression phenotypes of the offspring” value (Osteocalcin−/− mice) was “did not have any beneficial effect”, the “deficit in learning and memory of the offspring” value (Osteocalcin−/− mice) was “rescued over two third” and the “decrease of gonadal fat pad mass” value (wild type mice; 3 ng/hour, after 28 days) was roughly 18%. The body weight (wild type mice; 0.3, 1 or 3 ng/hour subcutaneously for 28 days, highest dose most effective) was “slightly reduced”, the fat mass (wild type mice; subcutaneous infusion 28 days (FIG. 4 title)) was “decreases” and the “gonadal fat pad mass” value (wild type mice; the other doses (0.3, 1 ng/hour), 28 days) was “did not significantly decrease”. For the same substance, the “leakage of the centrally delivered hormone into the general circulation” value [1] was “no leakage”, the 14C-oleate oxidation (Gprc6a−/− myotubes) was “could not increase” and the 14C-oleate oxidation (WT myotubes; WT myotubes) was “increase”. For the same substance, the fatty acid oxidation (WT myotubes; summary statement, in muscle) was “favors” and the bronchoconstriction (mice) was “prevented”.
